From patent publication US20260285855A1, “HETEROARYL DERIVATIVES AS DDRS INHIBITORS” (CHIESI FARMACEUTICI S.P.A., priority 2023, published 2026) come the findings set out here.

Test [1] deals with T1, DDR1 (Homo sapiens, UniProt Q08345).
T1 construct: purchased Carna Biosciences
The test can be described thus: LanthaScreen Europium Kinase Binding assay, DDR1. To be noted: 5 nM DDR1, 20 nM Kinase Tracer 178, 1 h at rt; Ki from IC50 by Cheng-Prusoff; read-out: Ki DDR1. As to the method: (§1) DDR1 and DDR2 binding assays were performed using Life Technologies LanthaScreen™ Europium Kinase Binding assay. […] IC50 values were determined in GraphPad Prism 7.0 software, using 4 parameter model: log (inhibitor) vs. response. IC50 values were converted in Ki using the Cheng-Prusoff equation (Ki-IC50/(1+ [Tracer]/Kd).

The target of test [2] is T2, DDR2 (Homo sapiens, UniProt Q16832).
T2 construct: purchased Life Technologies
T2 sequence (Q16832 22-855): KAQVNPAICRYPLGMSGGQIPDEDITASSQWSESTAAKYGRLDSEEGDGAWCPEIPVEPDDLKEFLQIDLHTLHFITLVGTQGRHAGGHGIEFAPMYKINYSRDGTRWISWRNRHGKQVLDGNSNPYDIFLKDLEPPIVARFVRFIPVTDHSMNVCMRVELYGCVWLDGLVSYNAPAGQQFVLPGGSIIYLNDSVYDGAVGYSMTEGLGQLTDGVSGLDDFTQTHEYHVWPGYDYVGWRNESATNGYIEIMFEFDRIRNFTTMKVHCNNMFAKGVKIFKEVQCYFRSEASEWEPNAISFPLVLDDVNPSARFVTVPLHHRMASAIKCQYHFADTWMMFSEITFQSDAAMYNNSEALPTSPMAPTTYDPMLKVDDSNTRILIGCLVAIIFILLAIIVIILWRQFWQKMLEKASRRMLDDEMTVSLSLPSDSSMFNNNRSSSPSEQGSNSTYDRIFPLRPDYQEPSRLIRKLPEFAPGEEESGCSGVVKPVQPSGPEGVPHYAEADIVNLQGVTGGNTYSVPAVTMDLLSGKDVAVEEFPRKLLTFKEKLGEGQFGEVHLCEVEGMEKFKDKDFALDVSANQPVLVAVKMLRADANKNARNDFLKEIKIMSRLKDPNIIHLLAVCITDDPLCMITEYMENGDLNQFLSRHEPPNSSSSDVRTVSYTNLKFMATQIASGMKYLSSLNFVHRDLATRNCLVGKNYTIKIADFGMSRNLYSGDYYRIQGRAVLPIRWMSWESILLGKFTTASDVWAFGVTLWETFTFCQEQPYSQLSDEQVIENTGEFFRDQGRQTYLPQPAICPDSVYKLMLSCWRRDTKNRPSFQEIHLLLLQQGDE
The test can be described thus: LanthaScreen Europium Kinase Binding assay, DDR2. Particulars: 5 nM DDR2, 10 nM Kinase Tracer 178, 1 h at rt; Ki from IC50 by Cheng-Prusoff; read-out: Ki DDR2. As to the method:
as §1
(In general: TR-FRET usually uses a lanthanide donor and a delayed reading to cut background.)

pKi: −log10 of the molar value.

T1 sequence (Q08345 19-913): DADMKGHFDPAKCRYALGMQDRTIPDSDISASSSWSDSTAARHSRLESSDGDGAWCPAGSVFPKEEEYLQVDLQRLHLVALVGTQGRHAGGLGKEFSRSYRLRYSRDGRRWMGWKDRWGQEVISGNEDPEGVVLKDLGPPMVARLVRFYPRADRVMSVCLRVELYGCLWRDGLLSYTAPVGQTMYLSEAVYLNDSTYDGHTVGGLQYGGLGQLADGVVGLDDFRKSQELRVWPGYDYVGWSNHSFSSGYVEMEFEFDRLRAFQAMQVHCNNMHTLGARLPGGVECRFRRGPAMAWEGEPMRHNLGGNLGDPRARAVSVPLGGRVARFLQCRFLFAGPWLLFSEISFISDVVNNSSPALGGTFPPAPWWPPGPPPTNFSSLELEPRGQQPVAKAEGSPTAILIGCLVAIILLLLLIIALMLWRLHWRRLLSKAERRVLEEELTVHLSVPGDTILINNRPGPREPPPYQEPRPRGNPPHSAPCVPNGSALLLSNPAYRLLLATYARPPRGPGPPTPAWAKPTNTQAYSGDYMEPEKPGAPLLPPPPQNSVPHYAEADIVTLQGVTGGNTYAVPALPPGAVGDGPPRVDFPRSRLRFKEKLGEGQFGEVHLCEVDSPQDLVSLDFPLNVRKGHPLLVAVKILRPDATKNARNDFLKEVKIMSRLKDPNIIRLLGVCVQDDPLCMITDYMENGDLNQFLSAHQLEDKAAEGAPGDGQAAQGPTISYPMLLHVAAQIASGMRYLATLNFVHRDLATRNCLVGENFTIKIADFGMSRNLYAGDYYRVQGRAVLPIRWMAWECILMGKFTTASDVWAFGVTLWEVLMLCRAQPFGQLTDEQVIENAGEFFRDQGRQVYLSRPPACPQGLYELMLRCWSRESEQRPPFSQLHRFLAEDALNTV

In general, pKi refers to the negative decadic logarithm of the Ki, by convention in mol/L. With `Cc1cc(NC(=O)N(C)C2CC3(C2)CN(C(=O)c2ncnc4[nH]ccc24)C3)cc(C(F)(F)F)c1` [Example 268, 1-(2-(7H-pyrrolo[2,3-d]pyrimidine-4-carbonyl)-2-azaspiro[3.3]heptan-6-yl)-1-methyl-3-(3-methyl-5-(trifluoromethyl)phenyl)urea], the pKi in test [1] was more than 8.30; in test [2] it was 7.60 to 8.30.
`Cc1ccc(C(F)(F)F)cc1NC(=O)OC1CC2(C1)CN(C(=O)c1cnn3ccn(C)c13)C2` [Example 270, 2-(1-methyl-1H-imidazo[1,2-b]pyrazole-7-carbonyl)-2-azaspiro[3.3]heptan-6-yl(2-methyl-5-(trifluoromethyl)phenyl)carbamate]: the pKi in test [1] and in test [2] was more than 8.30 throughout.
Consider `Cn1ccn2ncc(C(=O)N3CC4(CC(OC(=O)Nc5cc(C(C)(C)C(F)(F)F)on5)C4)C3)c12` [Example 271, 2-(1-methyl-1H-imidazo[1,2-b]pyrazole-7-carbonyl)-2-azaspiro[3.3]heptan-6-yl(5-(1,1,1-trifluoro-2-methylpropan-2-yl)isoxazol-3-yl)carbamate], for which the negative logarithm of the Ki (pKi) in test [1] and in test [2] was more than 8.30 in each case.
In the case of `O=C(Nc1cc(OC(F)(F)F)ccn1)OC1CC2(C1)CN(C(=O)c1cnn3ccsc13)C2` [Example 272, 2-(pyrazolo[5,1-b]thiazole-7-carbonyl)-2-azaspiro[3.3]heptan-6-yl(4-(trifluoromethoxy)pyridin-2-yl)carbamate], the negative-log Ki (pKi) in test [1] and in test [2] was more than 8.30 each time.
In the case of `O=C(Nc1cncc(C(F)(F)F)c1)OC1CC2(C1)CN(C(=O)c1cnn3ccsc13)C2` [Example 273, 2-(pyrazolo[5,1-b]thiazole-7-carbonyl)-2-azaspiro[3.3]heptan-6-yl(5-(trifluoromethyl)pyridin-3-yl)carbamate], the pKi in test [1] and in test [2] was more than 8.30 in each case.
With `Cn1ccn2ncc(C(=O)N3CC4(CC(CC(=O)Nc5cncc(C(F)(F)F)c5)C4)C3)c12` [Example 274, 2-(2-(1-methyl-1H-imidazo[1,2-b]pyrazole-7-carbonyl)-2-azaspiro[3.3]heptan-6-yl)-N-(5-(trifluoromethyl)pyridin-3-yl)acetamide], the pKi in test [1] is more than 8.30; in test [2], 7.60 to 8.30.
The like results for `O=C(CC1CC2(C1)CN(C(=O)c1cnn3ccsc13)C2)Nc1cncc(OC(F)(F)F)c1` [Example 275, 2-(2-(pyrazolo[5,1-b]thiazole-7-carbonyl)-2-azaspiro[3.3]heptan-6-yl)-N-(5-(trifluoromethoxy)pyridin-3-yl)acetamide] were, in that order, more than 8.30 and more than 8.30.
For `Cn1ccn2ncc(C(=O)N3CC4(CC(CC(=O)Nc5cc(OC(F)(F)F)ccc5F)C4)C3)c12` [Example 276, N-(2-fluoro-5-(trifluoromethoxy)phenyl)-2-(2-(1-methyl-1H-imidazo[1,2-b]pyrazole-7-carbonyl)-2-azaspiro[3.3]heptan-6-yl)acetamide] the same measures were more than 8.30 and more than 8.30.
The like results for `Cn1ccn2ncc(C(=O)N3CC4(CC(CC(=O)Nc5cc(OC(F)(F)F)ccn5)C4)C3)c12` [Example 277, 2-(2-(1-methyl-1H-imidazo[1,2-b]pyrazole-7-carbonyl)-2-azaspiro[3.3]heptan-6-yl)-N-(4-(trifluoromethoxy)pyridin-2-yl)acetamide] were, in that order, more than 8.30 and 7.60 to 8.30.
Turning to `Cc1ccc(OC(F)(F)F)cc1NC(=O)CC1CC2(C1)CN(C(=O)c1cnn3ccn(C)c13)C2` [Example 278, 2-(2-(1-methyl-1H-imidazo[1,2-b]pyrazole-7-carbonyl)-2-azaspiro[3.3]heptan-6-yl)-N-(2-methyl-5-(trifluoro-methoxy)phenyl)acetamide], the negative logarithm of the Ki (pKi) is more than 8.30 in test [1] and 7.60 to 8.30 in test [2].
For `Cn1ccn2ncc(C(=O)N3CC4(CC(CC(=O)Nc5cc(C(F)(F)F)ccn5)C4)C3)c12` [Example 279, 2-(2-(1-methyl-1H-imidazo[1,2-b]pyrazole-7-carbonyl)-2-azaspiro[3.3]hepan-6-yl)-N-(4-(trifluoromethyl)pyridin-2-yl)acetamide] the same measures were more than 8.30 and more than 8.30.
Take `Cc1ccc(OC(F)(F)F)cc1NC(=O)N(C)C1CC2(C1)CN(C(=O)c1ncnc3ccsc13)C2` [Example 280, 1-methyl-3-(2-methyl-5-(trifluoromethoxy)phenyl)-1-(2-(thieno[3,2-d]pyrimidine-4-carbonyl)-2-azaspiro[3.3]heptan-6-yl)urea]: the negative logarithm of the Ki (pKi) in test [1] and in test [2] was more than 8.30 in each case.
With `Cc1cc(NC(=O)N(C)C2CC3(C2)CN(C(=O)c2cnn4ccn(C)c24)C3)cc(OC(F)(F)F)c1` [Example 281, 1-methyl-1-(2-(1-methyl-1H-imidazo[1,2-b]pyrazole-7-carbonyl)-2-azaspiro[3.3]heptan-6-yl)-3-(3-methyl-5-(trifluoromethoxy)phenyl)urea], the negative logarithm of the Ki (pKi) in test [1] was more than 8.30; in test [2], 7.60 to 8.30.
For `CCc1ccc(C(F)(F)F)cc1NC(=O)NC1CC2(C1)CN(C(=O)c1cnn3ccn(C)c13)C2` [Example 282, 1-(2-ethyl-5-(trifluoromethyl)phenyl)-3-(2-(1-methyl-1H-imidazo[1,2-b]pyrazole-7-carbonyl)-2-azaspiro[3.3]heptan-6-yl)urea] the same measures were more than 8.30 and more than 8.30.
`Cc1c(F)cc(C(F)(F)F)cc1NC(=O)N(C)C1CC2(C1)CN(C(=O)c1cnn3ccn(C)c13)C2` [Example 283, 3-(3-fluoro-2-methyl-5-(trifluoromethyl)phenyl)-1-methyl-1-(2-(1-methyl-1H-imidazo[1,2-b]pyrazole-7-carbonyl)-2-azaspiro[3.3]heptan-6-yl)urea]: the pKi was more than 8.30 in test [1] and 7.60 to 8.30 in test [2].
For the compound `CN(C(=O)Nc1cc(C#N)cc(C(F)(F)F)c1)C1CC2(C1)CN(C(=O)c1ncnc3[nH]ccc13)C2` [Example 284, 1-(2-(7H-pyrrolo[2,3-d]pyrimidine-4-carbonyl)-2-azaspiro[3.3]heptan-6-yl)-3-(3-cyano-5-(trifluoromethyl)phenyl)-1-methylurea], the negative logarithm of the Ki (pKi) is more than 8.30 in test [1] and 7.60 to 8.30 in test [2].
As for `CN(C(=O)Nc1cc(C(F)(F)F)ccc1Cl)C1CC2(C1)CN(C(=O)c1ncnc3[nH]ccc13)C2` [Example 285, 1-(2-(7H-pyrrolo[2,3-d]pyrimidine-4-carbonyl)-2-azaspiro[3.3]heptan-6-yl)-3-(2-chloro-5-(trifluoromethyl)phenyl)-1-methylurea], the negative-log Ki (pKi) in test [1] and in test [2] was more than 8.30 throughout.
`CN(C(=O)Nc1cc(Cl)cc(C(F)(F)F)c1)C1CC2(C1)CN(C(=O)c1ncnc3[nH]ccc13)C2` [Example 286, 1-(2-(7H-pyrrolo[2,3-d]pyrimidine-4-carbonyl)-2-azaspiro[3.3]heptan-6-yl)-3-(3-chloro-5-(trifluoromethyl)phenyl)-1-methylurea]: the negative logarithm of the Ki (pKi) was more than 8.30 in test [1] and 7.60 to 8.30 in test [2].
The like results for `COc1cc(NC(=O)N(C)C2CC3(C2)CN(C(=O)c2cnn4ccn(C)c24)C3)cc(C(F)(F)F)c1` [Example 287, 3-(3-methoxy-5-(trifluoromethyl)phenyl)-1-methyl-1-(2-(1-methyl-1H-imidazo[1,2-b]pyrazole-7-carbonyl)-2-azaspiro[3.3]heptan-6-yl)urea] were, in that order, more than 8.30 and 7.60 to 8.30.
For `CCOc1ccc(C(F)(F)F)cc1NC(=O)N(C)C1CC2(C1)CN(C(=O)c1cnn3ccn(C)c13)C2` [Example 288, 3-(2-ethoxy-5-(trifluoromethyl)phenyl)-1-methyl-1-(2-(1-methyl-1H-imidazo[1,2-b]pyrazole-7-carbonyl)-2-azaspiro[3.3]heptan-6-yl)urea] the same measures were more than 8.30 and 7.60 to 8.30.
Consider `Cc1nc(NC(=O)N(C)C2CC3(C2)CN(C(=O)c2cnn4ccsc24)C3)cc(C(F)(F)F)n1` [Example 289, 1-methyl-3-(2-methyl-6-(trifluoromethyl)pyrimidin-4-yl)-1-(2-(pyrazolo[5,1-b]thiazole-7-carbonyl)-2-azaspiro[3.3]heptan-6-yl)urea], for which the pKi was more than 8.30 in test [1] and 7.60 to 8.30 in test [2].
For `Cc1nc(NC(=O)N(C)C2CC3(C2)CN(C(=O)c2cnn4ccn(C)c24)C3)cc(C(F)(F)F)n1` [Example 290, 1-methyl-1-(2-(1-methyl-1H-imidazo[1,2-b]pyrazole-7-carbonyl)-2-azaspiro[3.3]heptan-6-yl)-3-(2-methyl-6-(trifluoromethyl)pyrimidin-4-yl)urea] the same measures were 7.60 to 8.30 and 7.00 to 7.60.
